Reference: US20240190847A1, “INDOLINE DERIVATIVES AS DDR1 AND DDR2 INHIBITORS” (CHIESI FARMACEUTICI S.P.A., priority 2021, published 2024)

What was measured:
DDR2 [1] = test: DDR2 cell based assay (phospho-ELISA in HEK293T-DDR2 cells); parameters: species or system human; conditions: DDR2 phosphorylation, bovine Type II Collagen 50 μg/ml, read-out: IC50DDR2
Protocol: The inhibition of DDR2 phosphorylation by compounds was evaluated in HEK293T-DDR2 recombinant cells by phospho-ELISA assay. Briefly, HEK293T-DDR2 cells were seeded in poly-D-lysine-coated 24-well plates at a density of 250.000 cells/well and incubated for 1.5 hours at 37° C. and 5% CO2 in DMEM+10% FBS. After that, the medium was changed to serum-free DMEM and cells were incubated for 3 hours. Then. test compounds were added at different concentrations 30 minutes before stimulation with bovine Type II Collagen at 50 μg/ml for further 3 hours. For DDR2 phospho-ELISA assay (DuoSet IC Human Phospho-DDR2; R&D Systems), protein extracts were obtained by adding 60 μl/well of lysis buffer prepared according to the manufacturer's instructions.
Protein concentration in the samples was determined by BCA assay and the levels of phospho-DDR2 were determined following R&D Systems indications. Raw data were normalized to maximal inhibition control (0% for normalization) and positive control (100% for normalization; cells treated with 20 μg/ml collagen II) and IC50 parameters were calculated in GraphPad Prism 8.0 software, using sigmoidal dose-response curve fitting with variable slope.

DDR1 receptor = test: DDR1 cell based assay (PathHunter U2OS DDR1); conditions: U2OS-DDR1 cells, bovine Type II Collagen 20 μg/ml stimulation
Protocol: The inhibition of DDR1 receptor activation by compounds was evaluated by PathHunter® U2OS DDR1 assay (Eurofins DiscoverX), according to the manufacturer's instructions. Briefly, U2O5-DDR1 cells were seeded in white 384-well plates at a density of 5000 cells/well and incubated for 2 hours at 37° C. and 5% CO2. Cells were then treated with compounds at different concentrations and incubated for 30 minutes, before stimulation with bovine Type II Collagen 20 μg/ml and incubation overnight at 37° C. and 5% CO2. PathHunter Detection Reagents were prepared according to the protocol provided by DiscoverX and 20 μl/well of this mix were added to each well. After incubating the plates for 1 hour at room temperature in the dark, luminescence signal was acquired with a plate reader. Raw data were normalized to vehicle control (0% for normalization) and positive control (100% for normalization; cells treated with 20 μg/ml collagen II) and IC50 parameters were calculated in GraphPad Prism 8.0 software, using sigmoidal dose-response curve fitting with variable slope.

DDR1 = DDR1 LanthaScreen Europium Kinase Binding assay; conditions: 5 nM DDR1, 1 hour at room temperature, Ki from IC50 by Cheng-Prusoff, read-out: Ki DDR1
Protocol: (§1) DDR1 and DDR2 binding assays were performed using Life Technologies LanthaScreen™ Europium Kinase Binding assay. The compounds were incubated with 5 nM DDR1 (Carna Biosciences) or 5 nM DDR2 (Life Technologies) for 1 hour at room temperature in white 384-well OptiPlate (PerkinElmer), containing 20 nM or 10 nM Kinase Tracer 178 respectively and 2 nM Europium labelled anti-GST antibody (Life Technologies) in assay buffer (50 mM HEPES pH 7.5, 10 mM MgCl2, 1 mM EGTA and 0.01% BRIJ35). The ratio of fluorescence emission 665 nm/615 nm after excitation at 340 nm was obtained using the Tecan Spark 20M plate reader. IC50 values were determined in GraphPad Prism 8.0 software, using 4 parameter model: log(inhibitor) vs. response. IC50 values were converted in Ki using the Cheng-Prusoff equation (Ki=IC50/(1+[Tracer]/Kd).

DDR2 [2] = test: DDR2 LanthaScreen Europium Kinase Binding assay; conditions: 5 nM DDR2, 1 hour at room temperature, Ki from IC50 by Cheng-Prusoff, read-out: Ki DDR2
Protocol: as §1

| Structure (SMILES) | IC50 (DDR2 [1]) [nM] | IC50 (DDR1 receptor) [nM] | Ki (DDR1) [nM] | Ki (DDR2 [2]) [nM] |
| --- | --- | --- | --- | --- |
| CN1CCN(Cc2cc(C(=O)Nc3ccc4c(c3)N(Cc3cnc(Nc5cnn(C)c5)nc3)CC4)cc(C(F)(F)F)c2)CC1 [Example 4, N-(1-((2-((1-methyl-1H-pyrazol-4-yl)amino)pyrimidin-5-yl)methyl)indolin-6-yl)-3-((4-methylpiperazin-1-yl)methyl)-5-(trifluoromethyl)benzamide] | < 25 | < 25 | < 25 | < 25 |
| CN1CCN(Cc2cc(C(=O)Nc3ccc4c(c3)N(Cc3nccnc3N)CC4)cc(C(F)(F)F)c2)CC1 [Example 5, N-(1-((3-aminopyrazin-2-yl)methyl)indolin-6-yl)-3-((4-methylpiperazin-1-yl)methyl)-5-(trifluoromethyl)benzamide] | 25 to 50 | < 25 | < 25 | < 25 |
| CC(=O)Nc1ccc(CN2CCc3ccc(C(=O)Nc4ccc(CN5CCN(C)CC5)c(C(F)(F)F)c4)cc32)cn1 [Example 13, 1-((6-acetamidopyridin-3-yl)methyl)-N-(4-((4-methylpiperazin-1-yl)methyl)-3-(trifluoromethyl)phenyl)indoline-6-carboxamide] | 50 to 80 | < 25 | < 25 | 25 to 50 |
| CNc1ccc(CN2CCc3ccc(C(=O)Nc4ccc(CN5CCN(C)CC5)c(C(F)(F)F)c4)cc32)cn1 [Example 14, 1-((6-(methylamino)pyridin-3-yl)methyl)-N-(4-((4-methylpiperazin-1-yl)methyl)-3-(trifluoromethyl)phenyl)indoline-6-carboxamide] | 50 to 80 | < 25 | < 25 | 25 to 50 |
| COCCn1cc(Nc2ncc(CN3CCc4ccc(C(=O)Nc5cccc(C(F)(F)F)c5)cc43)cn2)cn1 [Example 16, 1-((2-((1-(2-methoxyethyl)-1H-pyrazol-4-yl)amino)pyrimidin-5-yl)methyl)-N-(3-(trifluoromethyl)phenyl)indoline-6-carboxamide] | < 25 | < 25 | < 25 | < 25 |
| CN1CCN(Cc2cc(NC(=O)c3ccc4c(c3)N(Cc3cnc(Nc5cnn(C)c5)nc3)CC4)cc(C(F)(F)F)c2)CC1 [Example 18, 1-((2-((1-methyl-1H-pyrazol-4-yl)amino)pyrimidin-5-yl)methyl)-N-(3-((4-methylpiperazin-1-yl)methyl)-5-(trifluoromethyl)phenyl)indoline-6-carboxamide] | < 25 | < 25 | < 25 | < 25 |
